Earlier results in US10894805B2, “Prodrugs of the selective progesterone receptor modulator (SPRM) (11β,17β)-17-Hydroxy-11-[4-(methylsulphonyl)phenyl] -17-(pentafluoroethyl)estra-4,9-dien-3-one” (BAYER PHARMA AKTIENGESELLSCHAFT, priority 2016, dated 2021).

System: Progesterone receptor
Conditions: DeManno et al., Steroids 68 (2003); cited from earlier work

For COC[C@]1(OC)CC[C@H]2[C@@H]3CCC4=CC(=O)CCC4=C3[C@@H](c3ccc(/C=N/O)cc3)C[C@@]21C [Compound J912], the “Progesterone binding affinity, Relative molar Binding Affinity (RBA)” value is given as “about 165 % RBA”.
